Reference: patent US20230011869A1 (Hoffmann-La Roche Inc., priority 2018, published 2023)
Structures can show the parent of a compound that is named as a salt.

Test system: Acinetobacter baumannii ATCC17978
Assay: Antimicrobial susceptibility testing: 90% growth inhibitory concentration (IC90) determination, Iso-Sensitest broth
Assay type: cell-based
Details: 90% growth inhibitory concentration, Acinetobacter baumannii ATCC17978, Iso-Sensitest broth, OD 600 nm over 16 h; read-out: ATCC17978 IC90
Procedure, shortened: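 A. baumannii ATCC17978 grown in Iso-Sensitest broth across 10 compound concentrations at 35±2 °C.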

In order of rising IC90:
1. Cc1cc(Nc2nccn3c(-c4ccc(OCC#N)c(F)c4F)cnc23)ccc1C(=O)N1CCN(C(=O)[C@@H]2C[C@](C)(O)CN2)CC1 [Example 230, 2-[2,3-difluoro-4-[8-[4-[4-[(2S,4S)-4-hydroxy-4-methyl-pyrrolidine-2-carbonyl]piperazine-1-carbonyl]-3-methyl-anilino]imidazo[1,2-a]pyrazin-3-yl]phenoxy] acetonitrile formate]  63 nM
2. CC[C@]1(O)CN[C@H](C(=O)N2CCN(C(=O)c3ccc(Nc4nccn5c(-c6ccc(OCC#N)c(F)c6F)cnc45)cc3C)CC2)C1 [Example 232, 2-[4-[8-[4-[4-[(2S,4R)-4-ethyl-4-hydroxy-pyrrolidine-2-carbonyl]piperazine-1-carbonyl]-3-methyl-anilino]imidazo[1,2-a]pyrazin-3-yl]-2,3-difluoro-phenoxy]acetonitrile formate]  83 nM
3. Cc1cc(Nc2nccn3c(-c4ccc(OCC#CCO)c(F)c4)cnc23)ccc1C(=O)N1CCC(CCN)CC1 [Example 246, [4-(2-aminoethyl)-1-piperidyl]-[4-[[3-[3-fluoro-4-(4-hydroxybut-2-ynoxy)phenyl]imidazo[1,2-a]pyrazin-8-yl]amino]-2-methyl-phenyl]methanone]  92 nM
4. Cc1cc(Nc2nccn3c(-c4ccc(O[C@@H](C)C#N)c(F)c4F)cnc23)ccc1C(=O)N1CCN(CCN(C)C)CC1 [Example 240, ((2S)-2-[4-[8-[4-[4-[2-(dimethylamino)ethyl]piperazine-1-carbonyl]-3-methyl-anilino]imidazo[1,2-a]pyrazin-3-yl]-2,3-difluoro-phenoxy]propanenitrile formate]  110 nM
5. Cc1cc(Nc2nccn3c(-c4ccc(OC(F)F)cc4)cnc23)ccc1C(=O)N1CCN(C(=O)Nc2ccncc2)CC1 [Example 245, 4-[4-[[3-[4-(difluoromethoxy)phenyl]imidazo[1,2-a]pyrazin-8-yl]amino]-2-methyl-benzoyl]-N-(4-pyridyl)piperazine-1-carboxamide]  120 nM
6. CNCCCNC(=O)C1CCN(C(=O)c2ccc(Nc3nccn4c(-c5ccc(OCC#N)c(F)c5F)cnc34)cc2C)CC1 [Example 242, 1-(4-((3-(4-(cyanomethoxy)-2,3-difluorophenyl)imidazo[1,2-a]pyrazin-8-yl)amino)-2-methylbenzoyl)-N-(3-(methylamino)propyl)piperidine-4-carboxamide]  170 nM
7. Cc1cc(Nc2nccn3c(-c4ccc(OC(C)C#N)c(F)c4F)cnc23)ccc1C(=O)N1CCN(CCN(C)C)CC1 (centres unmarked) [Example 238, 2-[4-[8-[4-[4-[2-(dimethylamino)ethyl]piperazine-1-carbonyl]-3-methyl-anilino]imidazo[1,2-a]pyrazin-3-yl]-2,3-difluoro-phenoxy]propanenitrile; 2,2,2-trifluoroacetic acid]  210 nM
8. Cc1cc(Nc2nccn3c(-c4ccc(OC(C)C#N)c(F)c4F)cnc23)ccc1C(=O)N1CCN(CCCN(C)C)CC1 (centres unmarked) [Example 237, 2-[4-[8-[4-[4-[3-(dimethylamino)pro-pyl]piperazine-1-carbonyl]-3-methyl-anilino]imidazo[1,2-a]pyrazin-3-yl]-2,3-difluoro-phenoxy]propanenitrile formate]  370 nM
9. Cc1cc(Nc2nccn3c(-c4ccc(OC(F)F)cc4)cnc23)ccc1C(=O)N1CCN(C(=O)C(O)CN)CC1 (centres unmarked) [Example 255, 3-amino-1-[4-[4-[[3-[4-(difluoromethoxy)phenyl]imi-dazo[1,2-a]pyrazin-8-yl]amino]-2-methylbenzoyl]piperazin-1-yl]-2-hydroxypropan-2-one; 2,2,2-trifluoroacetc acid]  730 nM
10. COc1ccc(-c2cnc3c(Nc4ccc(C(=O)N5CCN(Cc6cnc[nH]6)CC5)c(C)c4)nccn23)cc1F [Example 256, [4-[[3-(3-fluoro-4-methoxyphenyl)imidazo[1,2-a]pyrazin-8-yl]amino]-2-methylphenyl]-[4-(1H-imidazol-5-ylmethyl)piperazin-1-yl]methanone]  760 nM
11. COc1ccc(-c2cnc3c(Nc4ccc(C(=O)N5CCC(C(=O)NCC(O)C(O)CO)CC5)c(C)c4)nccn23)cc1F (centres unmarked) [Example 257, 1-[4-[[3-(3-fluoro-4-methoxyphenyl)imidazo[1,2-a]pyrazin-8-yl]amino]-2-methylbenzoyl]-N-(2,3,4-trihydroxybutyl)piperidine-4-carboxamide]  850 nM
12. COc1ccc(-c2cnc3c(Nc4ccc(C(=O)N5CCCC(CN(C)C)C5)c(C)c4)nccn23)cc1F (centres unmarked) [Example 252, [3-[(dimethylamino)methyl]pi-peridin-1-yl]-[4-[[3-(3-fluoro-4-methoxyphenyl)imidazo[1,2-a]pyrazin-8-yl]amino]-2-methylphenyl]methanone]  2000 nM
13. COc1ccc(-c2cnc3c(Nc4ccc(C(=O)N5CCNC(CN(C)C)C5)c(C)c4)nccn23)cc1F (centres unmarked) [Example 254, [3-[(dimethylamino)methyl]pi-perazin-1-yl]-[4-[[3-(3-fluoro-4-methoxyphenyl)imidazo[1,2-a]pyrazin-8-yl]amino]-2-methylphenyl]methanone; hy-drochloride]  2100 nM
14. CCc1cc(Nc2nccn3c(-c4ccc(OC)c(F)c4)cnc23)ccc1C(=O)N1CCC(C(=O)O)CC1 [Example 241, 1-(2-Ethyl-4-((3-(3-fluoro-4-methoxyphenyl)imidazo[1,2-a]pyrazin-8-yl)amino)benzoyl)piperidine-4-carboxylic acid]  2200 nM
15. COc1ccc(-c2cnc3c(Nc4ccc(C(=O)N5CCCCC5CN(C)C)c(C)c4)nccn23)cc1F (centres unmarked) [Example 253, [2-[(dimethylamino)methyl]pi-peridin-1-yl]-[4-[[3-(3-fluoro-4-methoxyphenyl)imidazo[1,2-a]pyrazin-8-yl]amino]-2-methylphenyl]methanone; for-mic acid]  6700 nM

Same assay, conditions: Acinetobacter baumannii, ATCC17978, 16 h, read-out: ATCC17978 IC90, 90% growth inhibitory concentration, Acinetobacter baumannii ATCC17978, Iso-Sensitest broth, OD 600 nm over 16 h

In order of rising IC90:
1. Cc1cc(Nc2nccn3c(-c4ccc(OC(F)F)cc4)cnc23)ccc1C(=O)N1CCN(C(=O)[C@H]2C[C@H](N)C2)CC1 [Example 250, [4-(3-aminocyclobutanecarbonyl)piperazin-1-yl]-[4-[[3-[4-(difluoromethoxy)phenyl]imidazo[1,2-a]pyrazin-8-yl]amino]-2-methyl-phenyl]methanone hydrochloride]  160 nM
2. Cc1cc(Nc2nccn3c(-c4ccc(OC(F)F)cc4)cnc23)ccc1C(=O)N1CCN(C(=O)[C@H]2C[C@@H](N)C2)CC1 [Example 249, [4-(3-aminocyclobutanecarbonyl)piperazin-1-yl]-[4-[[3-[4-(difluoromethoxy)phenyl]imidazo[1,2-a]pyrazin-8-yl]amino]-2-methyl-phenyl]methanone hydrochloride]  180 nM
3. Cc1cc(Nc2nccn3c(-c4ccc(O[C@H](C)C#N)c(F)c4F)cnc23)ccc1C(=O)N1CCN(CCN(C)C)CC1 [Example 239, (2R)-2-[4-[8-[4-[4-[2-(dimethylamino)ethyl]piperazine-1-carbonyl]-3-methyl-anilino]imidazo[1,2-a]pyrazin-3-yl]-2,3-difluoro-phenoxy]propanenitrile formate]  790 nM
4. Cc1cc(Nc2nccn3c(-c4ccc(OCC#CCN)c(F)c4)cnc23)ccc1C(=O)N1CCC(CN)CC1 [Example 247, [4-[[3-[4-(4-aminobut-2-ynoxy)-3-fluoro-phenyl]imidazo[1,2-a]pyrazin-8-yl]amino]-2-methyl-phenyl]-[4-(aminomethyl)-1-piperidyl]methanone; formic acid]  870 nM
5. Cc1cc(Nc2nccn3c(-c4ccc(OC(F)F)cc4)cnc23)ccc1C(=O)N1CCN(C(=O)[C@H](N)C(C)C)CC1 [Example 258, hydrochloride]  890 nM
6. Cc1cc(Nc2nccn3c(-c4ccc(OC(F)F)cc4)cnc23)ccc1C(=O)N1CCN(C(=O)[C@H](N)C2CC2)CC1 [Example 260, (2R)-2-amino-2-cyclopropyl-1-[4-[4-[[3-[4-(difluoromethoxy)phenyl]imi-dazo[1,2-a]pyrazin-8-yl]amino]-2-methylbenzoyl]piperazin-1-yl]ethanone; hydrochloride]  1000 nM
7. CC[C@@H](N)C(=O)N1CCN(C(=O)c2ccc(Nc3nccn4c(-c5ccc(OC(F)F)cc5)cnc34)cc2C)CC1 [Example 261, (2R)-2-amino-1-[4-[4-[[3-[4-(difluoromethoxy)phenyl]imi-dazo[1,2-a]pyrazin-8-yl]amino]-2-methylbenzoyl]piperazin-1-yl]butan-1-one; hydrochloride]  1000 nM
8. Cc1cc(Nc2nccn3c(-c4ccc(OC(F)F)cc4)cnc23)ccc1C(=O)N1CCN(C(=O)[C@@H](N)CCCNC(N)=O)CC1 [Example 262, [(4S)-4-amino-5-[4-[4-[[3-[4-(difluoromethoxy)phenyl]imi-dazo[1,2-a]pyrazin-8-yl]amino]-2-methylbenzoyl]piperazin-1-yl]-5-oxopentyl]urea]  1000 nM
9. Cc1cc(Nc2nccn3c(-c4ccc(OC(F)F)cc4)cnc23)ccc1C(=O)N1CCC(C(=O)N[C@@H]2CCNC2)CC1 [Example 263, 1-[4-[[3-[4-(difluoromethoxy)phenyl]imi-dazo[1,2-a]pyrazin-8-yl]amino]-2-methylbenzoyl]-N-[(3R)-pyrrolidin-3-yl]piperidine-4-carboxamide; hydrochloride]  1100 nM
10. COc1ccc(-c2cnc3c(Nc4ccc(C(=O)N5CCC(C(=O)N6CCNC(C(=O)O)C6)CC5)c(C)c4)nccn23)cc1F (centres unmarked) [Example 264, 4-[1-[4-[[3-(3-fluoro-4-methoxyphenyl)imidazo[1,2-a]pyrazin-8-yl]amino]-2-methylbenzoyl]piperidine-4-carbonyl]piperazine-2-carboxylic acid; formic acid]  1100 nM

Same assay, conditions: read-out: ATCC17978 IC90; 90% growth inhibitory concentration, Acinetobacter baumannii ATCC17978, Iso-Sensitest broth, OD 600 nm over 16 h

`Cc1cc(Nc2nccn3c(-c4ccc(OC(F)F)cc4)cnc23)ccc1C(=O)N1CCN(C(=O)CN)CC1` [Example 259, 2-amino-1-[4-[4-[[3-[4-(difluoromethoxy)phenyl]imi-dazo[1,2-a]pryazin-8-yl]amino]-2-methylbenzoyl]piperazin-1-yl]ethanone; formic acid] was tested, and the IC90 was 890 nM.
